# Assay results as given in patent US20250170093A1, “ENDOPLASMIC RETICULUM PROTEIN HYOU1-BINDING COMPOUND FOR INHIBITING ENDOPLASMIC RETICULUM-MITOCHONDRIAL INTERACTION AND USES THEREOF” (UIF (University Industry Foundation), Yonsei Univeristy, priority 2023, published 2025).
# Columns and labels:
# [1] = system: ApoE−/− mice fed a high-cholesterol diet; test: Atherosclerosis-induced animal model (ApoE-/- mice fed a high-cholesterol diet); type: in vivo, mouse; conditions: 20 mg/kg intraperitoneally every 2 days for 8 weeks
# Experimental: Mouse experiments were performed in accordance with the ethical guidelines approved by the Institutional Animal Care and Use Committee of Yonsei University (IACUC-A-202208-1519-01). ApoE−/− mice were provided by Dr. Goo Taeg Oh (Ewha Womans University, Korea) and were housed in a pathogen-free system with a 12-hour light-dark cycle with free access to water and food. The mice were fed a high-cholesterol diet from 6 weeks after birth until the end of the experiment. At the end of the experiment, the mice were anesthetized with Avertin (2,2,2-tribromoethanol) and perfused with PBS through the left ventricle.
# The outer membrane fat of the aorta isolated from the sacrificed animals was removed, dissected longitudinally, and fixed on a white silicone plate. After overnight fixation with 4% PFA, aortas were stained overnight with Oil Red O and washed with PBS. The heart and liver were then harvested and fixed overnight in 4% PFA and then placed in a 30% sucrose solution. After preparing tissues and preserving through cryopreservation (OCT) or paraffin embedding, sections were prepared for histologic analysis. For analysis of atherosclerotic lesions, the bottom of the heart, including the proximal aorta, was embedded in OCT medium, stained using the Oil Red O stain, and then quantified using the Image J software. […]
# HUVECs [2] = test: Transmission electron microscopy of ER and mitochondria in HUVECs; type: cell-based, human; conditions: CTS 5 μM; control group 61%
# Excerpt: First, HUVECs were imaged by transmission electron microscopy (TEM) to visualize the ER and mitochondria, and the ER-mitochondrial distance was observed. […] Increased contact between the ER and mitochondria can lead to cellular stress and dysfunction. CTS can help restore cellular homeostasis and prevent adverse effects associated with increased ER-mitochondrial interactions.
# HYOU1 = target: T1, HYOU1 (Homo sapiens, UniProt Q9Y4L1); test: DARTS-western analysis in HUVEC lysate; type: binding; conditions: dose-dependent, read-out: EC50 of resistance to degradation by Pronase
# T1 construct: endogenous in cells; host or cells: HUVEC
# T1 sequence (Q9Y4L1 33-999): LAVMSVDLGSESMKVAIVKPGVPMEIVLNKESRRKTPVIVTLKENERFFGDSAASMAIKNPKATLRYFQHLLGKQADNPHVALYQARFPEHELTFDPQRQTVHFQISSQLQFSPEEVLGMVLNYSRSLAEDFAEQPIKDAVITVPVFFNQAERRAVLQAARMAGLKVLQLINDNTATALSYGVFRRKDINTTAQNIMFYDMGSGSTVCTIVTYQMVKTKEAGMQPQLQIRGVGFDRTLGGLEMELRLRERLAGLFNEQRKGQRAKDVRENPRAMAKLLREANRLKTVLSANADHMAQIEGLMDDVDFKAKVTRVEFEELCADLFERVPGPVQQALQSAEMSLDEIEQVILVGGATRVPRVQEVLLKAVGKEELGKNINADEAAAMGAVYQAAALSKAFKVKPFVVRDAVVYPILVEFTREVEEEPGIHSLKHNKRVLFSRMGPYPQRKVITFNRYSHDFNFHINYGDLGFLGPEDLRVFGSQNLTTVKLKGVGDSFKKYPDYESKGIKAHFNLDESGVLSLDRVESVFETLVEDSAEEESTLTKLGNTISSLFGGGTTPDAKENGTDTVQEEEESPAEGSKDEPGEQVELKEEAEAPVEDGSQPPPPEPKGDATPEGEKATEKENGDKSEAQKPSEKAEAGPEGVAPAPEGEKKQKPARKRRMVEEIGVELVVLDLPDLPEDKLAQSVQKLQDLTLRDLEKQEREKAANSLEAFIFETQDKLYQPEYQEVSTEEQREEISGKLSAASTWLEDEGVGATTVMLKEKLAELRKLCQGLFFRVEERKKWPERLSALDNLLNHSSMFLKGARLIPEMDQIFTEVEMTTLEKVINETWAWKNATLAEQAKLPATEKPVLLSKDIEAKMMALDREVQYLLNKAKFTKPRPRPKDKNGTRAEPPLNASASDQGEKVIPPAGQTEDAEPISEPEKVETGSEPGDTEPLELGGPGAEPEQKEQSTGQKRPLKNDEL
# Experimental: HepG2 or HUVECs (1×10^7 cells) were lysed by homogenization in PBS buffer containing a protease/phosphatase inhibitor cocktail (½ tablet, 25 mL; Pierce), and the concentration of total proteins was determined by BCA assay. All steps were performed on ice to avoid premature protein degradation. The cell lysate (final protein concentration: 1 mg/mL, 100 μL) was aliquoted into a 1.5-mL tube and incubated with 0.01 to 10 μM CTS (in 1 μL DMSO) for 3 hours at 4° C. with gentle stirring. Pronase (non-specific protease) was then added (final concentration: 1 μg/mL) and reaction was performed for 10 minutes. After adding a 6×SDS buffer, the Pronase reaction was stopped by heating for 7 minutes.
# DARTS-western analysis was used to validate HYOU1 as a target protein of CTS in the lysate of HUVECs. […] In addition, […] to degradation by Pronase (protease) in a dose-dependent manner, with an EC50 value calculated to be about 1 μM (FIG. 5B).
# p62, LC3B-II and α-SMA = test: Western blot of autophagy and smooth muscle cell proliferation markers in PAH cell model; type: cell-based, human; conditions: TGF-β-stimulated PASMCs, vs control group
# Experimental: Human pulmonary artery smooth muscle cells (PASMCs; 4-8 passages) were cultured in an SmGM2 basal medium (Lonza, CC-3181) containing 5% FBS, supplements (Lonza, CC-4149) and 1% antibiotics.
# The cells were cultured in a chamber-type cell culture slide. When they reached 70% confluence, the medium was replaced with a medium containing 0.5% FBS and the cells were incubated for 4 hours to inhibit cell proliferation. The cells were then treated with DMSO and CTS (5 μM) while simultaneously stimulating with TGF-β (5 ng/ml) for 24 hours. The level of p62, LC3 and α-SMA was confirmed by western blot.
# HUVECs [3] = test: Mitochondrial calcium assay (Rhod-2) in HUVECs; type: cell-based, human; conditions: pretreated with xestospongin C, then treated with oxLDL
# Experimental: To measure calcium content in mitochondria or cytosol, HUVECs were cultured overnight at a density of 1.5×10^4 cells/well in a chamber slide (8-well) and incubated with Rhod-2/AM (2 μM) (Invitrogen, R1244) or Fluo-4/AM (1 μM) (Invitrogen, F14201), respectively, for 30 minutes at room temperature. The cells were then incubated in a calcium-free Krebs-Ringer-HEPES buffer (pH 7.4) additionally for 30 minutes for de-esterification of the dye. Images were captured in real time using an LSM980 confocal microscope (Zeiss, Oberkochen, Germany).
# In addition, it was investigated whether intracellular calcium was released from the ER and imported into the mitochondria in response to oxLDL. Specifically, it was confirmed that, when the HUVECs were treated with oxLDL along with the Rhod-2 dye, which is a marker of mitochondrial calcium, mitochondrial calcium level was increased. In contrast, when HUVECs were pretreated with xestospongin C, which is an IP3R antagonist, and then treated with oxLDL, there was no increase in the mitochondrial calcium level (FIG. 1D). This means that the oxLDL-induced increase in mitochondrial calcium is derived from the endoplasmic reticulum (ER).
# Furthermore, in order to investigate whether change in the physical coupling between the ER and mitochondria affects communications between cell organelles, Ca^2+ transport from the ER to mitochondria was examined. […]
Compound,body weight [1],number of dots closer than 40 nm (ER-mitochondrial distance) (HUVECs [2]) [%],EC50 (HYOU1) [nM],"decrease of expression of autophagy and smooth muscle cell proliferation markers (p62, LC3B-II and α-SMA)",mitochondrial calcium level (Rhod-2) (HUVECs [3])
"C[C@H]1COC2=C1C(=O)C(=O)c1c2ccc2c1CCCC2(C)C [CTS, Cryptotanshinone]",did not affect,37,~1000,approximately 40%,–
C1CCC[C@H]2CCCN3CC[C@@H](CCCCCC[C@@H]4CCCN5CC[C@@H](CC1)O[C@@H]45)O[C@@H]23 [xestospongin C],–,–,–,–,no increase
